Target: T1, SAPK3 (Rattus norvegicus, UniProt Q63538)
T1 construct: expressed in transfected cells; host or cells: human KB and 293 cells (vector pSG5)
T1 sequence (Q63538 1-367): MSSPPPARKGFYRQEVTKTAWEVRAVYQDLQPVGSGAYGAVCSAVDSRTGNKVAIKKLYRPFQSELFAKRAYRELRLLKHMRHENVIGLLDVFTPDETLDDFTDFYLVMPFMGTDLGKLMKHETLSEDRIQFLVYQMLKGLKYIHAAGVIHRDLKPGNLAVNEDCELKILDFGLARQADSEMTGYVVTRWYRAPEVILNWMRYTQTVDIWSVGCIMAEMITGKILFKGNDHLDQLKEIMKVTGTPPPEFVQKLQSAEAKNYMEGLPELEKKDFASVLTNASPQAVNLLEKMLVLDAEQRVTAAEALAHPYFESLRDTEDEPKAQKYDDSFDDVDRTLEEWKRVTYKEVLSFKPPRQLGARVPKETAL
Test: Activation of transfected myc epitope-tagged SAPK3 in KB and 293 cells, immunoprecipitation and MBP assay
Assay type: cell-based, human
Experimental: FIG. 11. SAPK3 is activated by cytokines and cellular stresses in KB and 293 cells. KB cells (A) or 293 cells (B) were transiently transfected with a DNA construct expressing a myc epitope-tagged SAPK3. Cells in DMEM were stimulated for 15 min with 0.5 M sorbitol (an osmotic shock), 20 ng/ml IL-1α, 100 ng/ml TNFa, 0.5 mM sodium arsenite (a chemical stress), 100 ng/ml of EGF or 300 ng/ml TPA, or for 30 min with […] anisomycin or 10 min with 100 ng/ml IGF-1. UV-C irradiation of cells was carried out at 60 J/m2 (KB cells) or 200 J/m2 (293 cells) and the cells then left for a further 30 min at 37° C. before lysis. The myc epitope-tagged SAPK3 was immunoprecipitated from cell lysates using the 9E10 monoclonal antibody and assayed with MBP as substrate. […] After UV-C irradiation, SAPK3 activity in the extracts was 0.18 U/mg (KB cells) and 0.1 U/mg (293 cells).
Cell culture and transient transfections. 293, KB and COS-7 cells were cultured in Dulbecco's modified Eagles' Medium (DMEM) supplemented with 10% foetal calf serum, at 37° C., in an atmosphere of 5% CO2. Transfections of 293 cells were carried out using the calcium-phosphate method. […]

C[S+]([O-])c1ccc(-c2nc(-c3ccncc3)c(-c3ccc(F)cc3)[nH]2)cc1 (stereo not shown) [SB 203580]
Prevention of activation of transfected SAPK3 by osmotic shock: did not prevent

Source: US6617117B1, “MAP kinases: polypeptides, polynucleotides and uses thereof” (Medical Research Council, priority 1996, dated 2003)
